In PMC5630632, “Assessing inhibitors of mutant isocitrate dehydrogenase using a suite of pre-clinical discovery assays” (Scientific Reports, 2017):

Molecular target: P-glycoprotein (P-gp, MDR1, ABCB1) (Homo sapiens, UniProt P08183)
Experiment: Bidirectional MDCK-MDR1 permeability assay (Cyprotex)
Details: dog, MDCK-MDR1

P-glycoprotein (P-gp, MDR1, ABCB1), sequence (P08183 whole entry): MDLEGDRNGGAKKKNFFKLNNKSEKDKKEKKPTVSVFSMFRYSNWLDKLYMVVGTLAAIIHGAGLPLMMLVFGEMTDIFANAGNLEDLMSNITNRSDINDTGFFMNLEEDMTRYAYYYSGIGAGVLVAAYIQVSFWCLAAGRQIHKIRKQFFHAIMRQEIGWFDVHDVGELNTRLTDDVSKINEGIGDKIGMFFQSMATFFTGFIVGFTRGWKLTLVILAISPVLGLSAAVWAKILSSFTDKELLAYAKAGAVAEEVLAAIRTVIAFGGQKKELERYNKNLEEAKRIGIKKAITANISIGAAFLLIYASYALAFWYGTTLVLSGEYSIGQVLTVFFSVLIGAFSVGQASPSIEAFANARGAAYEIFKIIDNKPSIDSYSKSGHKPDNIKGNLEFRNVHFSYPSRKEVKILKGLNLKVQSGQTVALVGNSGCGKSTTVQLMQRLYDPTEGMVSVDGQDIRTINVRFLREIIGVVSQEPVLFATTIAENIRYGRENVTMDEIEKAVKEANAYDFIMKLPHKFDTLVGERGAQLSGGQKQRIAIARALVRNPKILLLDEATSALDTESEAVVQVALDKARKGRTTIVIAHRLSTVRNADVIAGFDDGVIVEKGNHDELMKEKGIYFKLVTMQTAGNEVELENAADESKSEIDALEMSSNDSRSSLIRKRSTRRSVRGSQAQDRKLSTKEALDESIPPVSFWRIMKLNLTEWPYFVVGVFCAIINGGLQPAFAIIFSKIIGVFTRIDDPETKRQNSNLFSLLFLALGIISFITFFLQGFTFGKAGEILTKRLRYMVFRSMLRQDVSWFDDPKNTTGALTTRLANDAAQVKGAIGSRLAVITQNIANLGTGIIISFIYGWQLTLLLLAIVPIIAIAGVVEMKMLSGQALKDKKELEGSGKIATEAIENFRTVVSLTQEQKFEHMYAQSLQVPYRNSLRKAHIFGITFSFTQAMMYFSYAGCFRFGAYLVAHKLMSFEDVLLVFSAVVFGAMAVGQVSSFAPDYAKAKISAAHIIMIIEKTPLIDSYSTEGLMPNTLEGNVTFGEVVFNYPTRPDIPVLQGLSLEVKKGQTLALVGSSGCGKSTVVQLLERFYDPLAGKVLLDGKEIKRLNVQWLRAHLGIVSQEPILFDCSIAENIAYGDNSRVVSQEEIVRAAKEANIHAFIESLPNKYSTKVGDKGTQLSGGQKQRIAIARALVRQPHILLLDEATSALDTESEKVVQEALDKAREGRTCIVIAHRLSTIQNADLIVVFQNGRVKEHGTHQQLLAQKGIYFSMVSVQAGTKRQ

CN(C)C(=O)C(CCN1CCC(O)(c2ccc(Cl)cc2)CC1)(c1ccccc1)c1ccccc1 [loperamide]
efflux ratio at 2 h, 10 µM: ~350
